Measured values reported in article PMC11091967, “Silicon-Rhodamine Functionalized Evocalcet Probes Potently and Selectively Label Calcium Sensing Receptors In Vitro, In Vivo, and Ex Vivo” (ACS Pharmacology & Translational Science, 2024).
Like-named read-outs stand apart in the source and are kept apart here.

Assays:
[1] = Spectrofluorometric fluorescence in PBS and effect of pH; assay type: physicochemical; conditions: PBS
Protocol: (§1) Spectrofluorometric measurements were carried out by using the Agilent Cary Eclipse instrument. The voltage of the photomultiplier tube (PMT) was set to 600 for EvoSiR4 and EvoSiR6, and for 500 for SiR (4). Fluorescence of the probes was measured at concentrations ranging from 30 to 3000 nM in PBS containing various amounts of bovine serum albumin (BSA) (Sigma, A7906). Quenching experiments for the calculation of BSA binding were performed by adding a 1:1 molar ratio of tannic acid dissolved in ddH2O (Sigma, 403040) to the solution prior to measuring fluorescence.

[2] = target: T1, bovine serum albumin (BSA) (Bos taurus, UniProt P02769); test: Spectrofluorometric analysis of fluorogenicity upon BSA binding; assay type: physicochemical
T1 construct: purchased Sigma A7906
T1 sequence (P02769 25-607): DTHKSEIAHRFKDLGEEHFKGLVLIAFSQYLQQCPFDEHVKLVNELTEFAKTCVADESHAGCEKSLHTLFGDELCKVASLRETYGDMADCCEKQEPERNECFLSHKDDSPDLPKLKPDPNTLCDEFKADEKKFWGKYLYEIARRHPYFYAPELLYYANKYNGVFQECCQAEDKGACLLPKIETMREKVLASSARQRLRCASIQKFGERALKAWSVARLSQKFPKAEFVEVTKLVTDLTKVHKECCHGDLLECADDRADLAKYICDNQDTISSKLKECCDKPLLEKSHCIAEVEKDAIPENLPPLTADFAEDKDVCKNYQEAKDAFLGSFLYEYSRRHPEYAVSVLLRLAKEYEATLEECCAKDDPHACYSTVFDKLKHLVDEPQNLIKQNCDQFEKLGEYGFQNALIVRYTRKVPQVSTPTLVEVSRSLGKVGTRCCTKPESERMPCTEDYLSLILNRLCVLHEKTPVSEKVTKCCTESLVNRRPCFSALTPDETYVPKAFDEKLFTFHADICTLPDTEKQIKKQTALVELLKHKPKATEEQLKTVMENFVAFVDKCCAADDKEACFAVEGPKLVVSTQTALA
Protocol: as §1

[3] = Photophysical characterization; assay type: physicochemical; set-up: λex / λem: unit not given here
human CaSR [4] = target: T2, human CaSR (Homo sapiens, UniProt P41180); test: In vitro labeling of CaSR expressing (HCAR) and control (CCL39) cells, fluorescence microscopy; assay type: cell-based
T2 construct: host or cells: CCL39 hamster lung fibroblasts stably transfected (HCAR), Geneticin selection
T2 sequence (P41180 20-1078): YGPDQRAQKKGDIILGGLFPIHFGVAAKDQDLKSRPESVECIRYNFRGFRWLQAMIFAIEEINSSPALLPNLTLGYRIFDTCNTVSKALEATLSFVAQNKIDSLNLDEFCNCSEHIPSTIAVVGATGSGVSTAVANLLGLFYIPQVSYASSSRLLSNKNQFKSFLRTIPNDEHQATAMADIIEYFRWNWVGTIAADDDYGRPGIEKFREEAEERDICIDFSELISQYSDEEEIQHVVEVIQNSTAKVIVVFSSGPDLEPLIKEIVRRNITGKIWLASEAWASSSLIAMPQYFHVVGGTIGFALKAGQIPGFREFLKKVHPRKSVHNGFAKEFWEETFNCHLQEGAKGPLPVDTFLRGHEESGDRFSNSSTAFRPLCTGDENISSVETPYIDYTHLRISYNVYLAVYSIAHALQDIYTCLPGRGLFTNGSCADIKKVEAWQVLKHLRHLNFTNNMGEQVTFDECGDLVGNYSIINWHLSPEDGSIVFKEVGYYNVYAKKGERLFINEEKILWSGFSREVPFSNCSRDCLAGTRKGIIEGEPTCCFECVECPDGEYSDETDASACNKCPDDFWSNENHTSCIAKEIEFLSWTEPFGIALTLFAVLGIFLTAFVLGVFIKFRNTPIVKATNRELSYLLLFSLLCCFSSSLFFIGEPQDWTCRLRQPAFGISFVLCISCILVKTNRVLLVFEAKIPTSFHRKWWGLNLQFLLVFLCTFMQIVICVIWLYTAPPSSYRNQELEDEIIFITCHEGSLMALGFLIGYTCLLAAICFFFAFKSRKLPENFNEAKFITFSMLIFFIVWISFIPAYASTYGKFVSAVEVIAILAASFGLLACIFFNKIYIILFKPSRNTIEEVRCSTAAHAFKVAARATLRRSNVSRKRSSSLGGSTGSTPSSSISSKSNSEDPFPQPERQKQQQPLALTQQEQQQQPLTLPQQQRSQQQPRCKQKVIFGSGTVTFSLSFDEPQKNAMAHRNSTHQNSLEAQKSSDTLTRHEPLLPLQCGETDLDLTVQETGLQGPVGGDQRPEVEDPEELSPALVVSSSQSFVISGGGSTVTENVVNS
Protocol: HCAR (CaSR+) and CCL39 (CaSR−) cells were kindly obtained from Novartis AG (Basel, Switzerland) and validated in house. The cells were seeded into μ-slide 18 well plates (ibidi, 81816) at a density of 5000 cells per well and were incubated for 24 h under standard culturing conditions. As our preliminary data indicated considerable nonspecific labeling of dying cells and cellular debris, a viability staining was introduced to ensure probe specificity.[29] Thus, after washing twice with HBSS, cells were incubated in 10 μM Calcein AM solution containing 0.02% Pluronic F-127 and 0.1% DMSO for 45 min at 37 °C. The solution was then removed and washed twice in HBSS before the addition of the HBSS solution containing the SiR probes. All probe solutions were protected from light exposure and contained 0.5% DMSO and various concentrations of BSA depending on the experiment. Incubation with the fluorescent probes was 20 min long, after which a single washing step was introduced with HBSS before imaging. Images of the cells (Calcein: FITC channel, SiR: Cy5 channel) were acquired with a Nikon Eclipse TI2 inverted wide-field fluorescence microscope using a 60× magnification oil immersion objective (Nikon CFI Plan Fluor, 60×, NA = 0.85). For each well, a minimum of 3 images were acquired. For each image, cells were segmented to generate labels on the FITC channel postacquisition using the deep neural network-based Cellpose package in Python 3.9 (model_type: cyto2, diameter: 200, flow_threshold: 0.4).[30] To normalize pixel intensity values across images, for each image, a background value was calculated by taking the average pixel intensity value of the pixels in which no cellular label was present and were negative for the EvoSiR label (triangle thresholding used). For each cell, the skewness of the value distribution and the mean of the Cy5 pixel intensities were calculated. The procedure for evaluating the long-term labeling (72 h) of EvoSiR probes on CCL39 and HCAR cells was similar, with the following modifications: images were retrieved using 10× magnification air objectives (Nikon CFI Plan Fluor 10×, NA = 0.3), in the neural network model, the diameter parameter was set to 30, and only the mean Cy5 pixel intensities per cell object were retrieved.

[5] = tested on: hair cells of the neuromasts within the lateral line organ; test: In vivo labeling of neuromasts in zebrafish larvae; set-up: species or system zebrafish (Danio rerio); conditions: 4–6 dpf larvae, neuromasts identified with DiAsp
Protocol: For the neuromast labeling experiments, wild-type 4–6 days post fertilization (dpf) zebrafish larvae were incubated in 200 μL of E3 medium containing different doses of the SiR probes (500–5000 nM), 2.5 μM 4-(4-diethylaminostyryl)-1-methyl-pyridinium-iodid (DiAsp, Sigma, D3418), which specifically labels hair cells in the lateral line in 0.5% DMSO for 30 min (35). Next, washing and anesthesia were achieved by placing the larvae in a 35 mm imaging dish (MolBiTec, Imaging dish 1.5) which contained 500 μL of E3 medium with 168 mg/L MS-222 (Tricaine Mehanesulfonate, Sigma) for 10 min. After removing the solution, fish were side-embedded in the imaging dish using 500 μL of 0.75% low-melting temperature agarose (Sigma, A4018). Wide-field imaging was done using the Zeiss Axio Observer fluorescence microscope (LD A-Plan 10× objective, NA = 0.25), and confocal imaging was done using a Zeiss LSM 800 confocal fluorescence microscope (LD LCI Plan-Apochromat 25× objective, NA = 0.8).

human CaSR [6] = target: T2, human CaSR; test: FLIPR-based functional CaSR calcium assay in HCAR cells; assay type: cell-based; conditions: HCAR cells
Protocol: Hamster lung fibroblasts (CCL39, CaSR−) expressing the recombinant human CaSR (HCAR, CaSR+) and nontransected controls were kindly provided by Novartis AG and were kept in standard culturing conditions (37 °C, 5% CO2) in 1/2 DMEM (Roth, 9005.1)—1/2 F-12 (Sigma, N4888–500 mL) media containing 10% FBS. Media for the HCAR cells contained 500 μg/mL Geneticin as a selection antibiotic (Thermo Fisher, 10131035). Upon reaching 90–95% confluence, cells were detached and seeded into 96-well plates (PerkinElmer, 6005182) at a concentration of 35,000 cells per well and were incubated for 24 h before the experiment. For the functional CaSR calcium assay, cells were first washed twice with HBSS medium (Sigma, H6648), and were incubated in HBSS containing 5 μM Fluo-8 AM and 0.1 mM CaCl2 for 30 min at 37 °C. Calcium transients were measured upon addition of 0.5 mM CaCl2 with the FLIPR Tetra high-throughput cellular screening systems using the 470–495 nm LED excitation and 515–575 nm bandpass emission filters. Probe solutions contained 0.5% DMSO and were added to the cells 10 min prior to the measurement. dF/F0 values were calculated as a change in the peak fluorescence value of the transient for the first 200 data points normalized to the background fluorescence of the well. […] Both cells were washed with HBSS medium twice and then incubated for 10 min at 37 °C in HBSS medium containing 0.1% BSA in the presence or absence of 10 μM evocalcet. Upon the removal of media, cells were incubated in various concentrations of EvoSiR4 and EvoSiR6 in HBSS containing 0.1% BSA for 30 min at 37 °C and were subsequently washed 3 times with 0.1% BSA and resuspended in DMSO before the fluorometric measurement. The fluorescence was measured using a Tecan GENios pro microplate reader with the following parameters: λex = 612 nm, λem = 670 nm, gain = 50 AU. Data for the EvoSiR probes and the evocalcet competition is reported as CaSR-specific fluorescence, which was calculated by dividing the absolute fluorescence of the HCAR cells with the absolute fluorescence of the CCL39 cells for each concentration.

[7] = Fluorescence quenching of SiR probes by tannic acid, spectrofluorometer; assay type: physicochemical
Protocol: as §1

For `Cc1cc(C(=O)NCCCCN)ccc1C1=C2C=CC(=[N+](C)C)C=C2[Si](C)(C)c2cc(N(C)C)ccc21` [SiR (4)], the “absolute fluorescence in PBS relative to EvoSiR4 and EvoSiR6” value [1] was 10 times, the “increase in absolute fluorescence upon addition of 1% BSA” value ([2]; 1% BSA compared to PBS) was “no effect” and the “change in absolute fluorescence in response to BSA” value ([2]; BSA 0.01–0.1%) was “no significant change”. The “fluorescence lifetime τ” value [3] was 1.92 ± 0.733 ns, the “quantum yield Φ” value ([3]; 94% ethanol, 750 nM, relative to Rhodamine B) was 0.347 and the λem ([3]; Table 1) was 670. The λex ([3]; Table 1) was 650, the “extinction coefficient ε” value ([3]; absorbance at 150–1350 nM, 1 cm cuvette) was 7051 M^–1 cm^–1 and the “fold increase in skewness of pixel intensity distribution, CaSR+ (HCAR) vs CaSR- (CCL39) cells” value (human CaSR [4]; 500 nM probe, 0.1% BSA) was “no significant difference”. For the same molecule, the “normalized fluorescence of the neuromasts to the background fluorescence, mean and standard deviation” value [5] was 1.28 ± 0.41.

For `C[C@@H](N[C@H]1CCN(c2ccc(CC(=O)NCCCCNC(=O)OC(C)(C)C)cc2)C1)c1cccc2ccccc12` [compound 1], the EC50 (human CaSR [6]; response to addition of 0.5 mM CaCl2, no BSA, read-out: EC50, positive allosteric modulation of CaSR activity) was 0.101 ± 0.006 µM.

With `[Ca+2].[Cl-].[Cl-]` [extracellular calcium, CaCl2, reference compound] the EC50 (human CaSR [6]; dF/F0, read-out: EC50 of intracellular calcium release in response to extracellular calcium) was 252 ± 10 µM.

In the case of tannic acid [reference compound], the “increase in signal-to-noise ratio of EvoSiR4 labeling” value (human CaSR [4]; 100 nM tannic acid, CaSR+ cells labeled with 500 nM EvoSiR4) is reported as 40% and the “IC50 of quenching the fluorescence of EvoSiR probes and SiR (4)” value [7] is reported as “low nanomolar ranges”.
